Experimental data from PubChem BioAssay AID248 (DTP/NCI, 2004).
Several values for one entry are separate records, joined by “and”; a condition that tells them apart may be missing. Identical values can stand only once. Inconclusive results and toxic doses are left out. Rule as the data show it: active = T/C of 150% or more; inactive = T/C below 125%. Peptide text beside a SMILES is read from it. * marks the point of attachment. Bz = O=C(c1ccccc1)*

Test system: L1210 leukemia ip in BDF1 mice, survival T/C
Experiment: NCI In Vivo Anticancer Drug Screen. Data for tumor model L1210 Leukemia (intraperitoneal) in B6D2F1 (BDF1) mice
Conditions: endpoint: mean survival time, higher = longer survival
Procedure, shortened: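 Transplanted-tumor mice were given test agent; controls received vehicle only. Survival readings from the two groups were divided (treated over control).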

[1] = dose: 25.0 mg/kg/injection, schedule: Q01DX009 (ip), vehicle: saline with Tween-80
[2] = dose: 100.0 mg/kg/injection, schedule: Q01DX009 (ip), vehicle: saline with Tween-80
[3] = dose: 100.0 mg/kg/injection, schedule: Q04DX003 (ip), vehicle: saline with Tween-80
[4] = dose: 100.0 mg/kg/injection, schedule: Q01DX001 (ip), vehicle: saline
[5] = dose: 200.0 mg/kg/injection, schedule: Q01DX001 (ip), vehicle: saline
[6] = dose: 100.0 mg/kg/injection, schedule: Q04DX003 (ip), vehicle: Klucel (hydroxypropylcellulose) (HPC)
[7] = dose: 200.0 mg/kg/injection, schedule: Q04DX003 (ip), vehicle: Klucel (hydroxypropylcellulose) (HPC)
[8] = dose: 400.0 mg/kg/injection, schedule: Q04DX003 (ip), vehicle: Klucel (hydroxypropylcellulose) (HPC)
[9] = dose: 75.0 mg/kg/injection, schedule: Q01DX001 (ip), vehicle: saline
[10] = dose: 150.0 mg/kg/injection, schedule: Q01DX001 (ip), vehicle: saline
[11] = dose: 50.0 mg/kg/injection, schedule: Q01DX001 (ip), vehicle: saline
[12] = dose: 100.0 mg/kg/injection, schedule: Q01DX001 (ip), vehicle: saline with Tween-80
[13] = dose: 200.0 mg/kg/injection, schedule: Q01DX001 (ip), vehicle: saline with Tween-80
[14] = dose: 200.0 mg/kg/injection, schedule: Q01DX009 (ip), vehicle: saline with Tween-80

Measured: T/C

CN(C)C(=S)SCC(=O)[O][Sn]([c]1ccccc1)([c]1ccccc1)[c]1ccccc1
inactive: dose: 6.25 mg/kg/injection, schedule: Q04DX002 (ip), vehicle: saline with Tween-80 96 % of control | dose: 12.5 mg/kg/injection, schedule: Q04DX002 (ip), vehicle: saline with Tween-80 93 % of control | dose: 25.0 mg/kg/injection, schedule: Q04DX002 (ip), vehicle: saline with Tween-80 104 % of control

O=C1NC(c2ccccc2)(c2ccccc2)C(=O)N1CCN(CCCl)CCCl
inactive: dose: 12.5 mg/kg/injection, schedule: Q01DX009 (ip), vehicle: saline with Tween-80 116 % of control | [1] 102 % of control | dose: 50.0 mg/kg/injection, schedule: Q04DX003 (ip), vehicle: saline with Tween-80 105 % of control | [2] 121 % of control | [3] 116 % of control and 121 % of control

O=C(O)CCNC(=S)Nc1ccc(S(=O)(=O)c2ccc(NC(=S)NCCC(=O)O)cc2)cc1
inactive: [4] 104 % of control | [5] 98 % of control | dose: 400.0 mg/kg/injection, schedule: Q01DX001 (ip), vehicle: saline 102 % of control

O=C(c1ccccc1)c1cc(O)c(O)c(O)c1
inactive: dose: 100.0 mg/kg/injection, schedule: Q01DX009 (ip), vehicle: other 99 % of control | dose: 100.0 mg/kg/injection, schedule: Q04DX003 (ip), vehicle: saline 100 % of control | dose: 200.0 mg/kg/injection, schedule: Q01DX009 (ip), vehicle: other 90 % of control | dose: 200.0 mg/kg/injection, schedule: Q04DX003 (ip), vehicle: saline 94 % of control | dose: 400.0 mg/kg/injection, schedule: Q01DX009 (ip), vehicle: other 99 % of control | dose: 400.0 mg/kg/injection, schedule: Q04DX003 (ip), vehicle: saline 100 % of control

O=C(N/N=C/c1ccc2c(c1)CCC2)c1cccc(O)c1
inactive: [6] 96 % of control | [7] 95 % of control | [8] 91 % of control

O=[N+]([O-])c1cc(Br)cc2c1nc(NCCO)c1ccccc12
inactive: [6] 103 % of control | [7] 119 % of control | [8] 101 % of control

CCOC(=O)CCC(NC(=O)Cc1ccc(NC(=O)C(F)(F)F)cc1)C(=O)OCC (configuration not stated)
inactive: dose: 100.0 mg/kg/injection, schedule: Q01DX009 (ip), vehicle: Klucel (hydroxypropylcellulose) (HPC) 105 % of control | dose: 200.0 mg/kg/injection, schedule: Q01DX009 (ip), vehicle: Klucel (hydroxypropylcellulose) (HPC) 96 % of control | dose: 400.0 mg/kg/injection, schedule: Q01DX009 (ip), vehicle: Klucel (hydroxypropylcellulose) (HPC) 98 % of control

C=C1C(=O)N(C)C(C(=O)OC)CC1(O)C(CC)C(=O)OC (configuration not stated)
inactive: dose: 18.7 mg/kg/injection, schedule: Q01DX001 (ip), vehicle: saline 94 % of control | dose: 37.5 mg/kg/injection, schedule: Q01DX001 (ip), vehicle: saline 98 % of control | [9] 117 % of control | [10] 102 % of control

NC(CSCc1ccccc1)CSCc1ccccc1
inactive: dose: 25.0 mg/kg/injection, schedule: Q01DX009 (ip), vehicle: saline 101 % of control | dose: 50.0 mg/kg/injection, schedule: Q01DX009 (ip), vehicle: saline 100 % of control | dose: 100.0 mg/kg/injection, schedule: Q01DX009 (ip), vehicle: saline 105 % of control

C1=CC2CC1C1CSCC21 (configuration not stated)
inactive: dose: 0.34 mg/kg/injection, schedule: Q01DX009 (ip), vehicle: saline 102 % of control | dose: 0.51 mg/kg/injection, schedule: Q01DX009 (ip), vehicle: saline 107 % of control | dose: 0.78 mg/kg/injection, schedule: Q01DX009 (ip), vehicle: saline 98 % of control | dose: 1.56 mg/kg/injection, schedule: Q04DX003 (ip), vehicle: saline 97 % of control | dose: 3.12 mg/kg/injection, schedule: Q04DX003 (ip), vehicle: saline 94 % of control

CC1=CC(=O)C=CC1=Nc1cc(Cl)c(O)c(Cl)c1
inactive: [11] 101 % of control | [4] 95 % of control

Nc1ccc(CCCNc2c(N)nc(N)nc2-c2ccccc2)cc1
inactive: [11] 100 % of control | [4] 103 % of control | [5] 94 % of control

O=[N+]([O-])c1ccc(OCCOCCOc2ccc(S(=O)(=O)F)cc2)c(Cl)c1
inactive: [12] 89 % of control | [13] 97 % of control | dose: 400.0 mg/kg/injection, schedule: Q01DX001 (ip), vehicle: saline with Tween-80 103 % of control

CN(CCCl)C1c2ccccc2-c2ccccc21
inactive: dose: 25.0 mg/kg/injection, schedule: Q04DX002 (ip), vehicle: saline 100 % of control | dose: 50.0 mg/kg/injection, schedule: Q04DX002 (ip), vehicle: saline 100 % of control | dose: 100.0 mg/kg/injection, schedule: Q04DX002 (ip), vehicle: saline 106 % of control and 117 % of control

COC(=O)CNC(=O)CNC(=O)c1ccccc1 (Bz-Gly-Gly-OMe)
inactive: [2] 89 % of control | [14] 87 % of control | dose: 400.0 mg/kg/injection, schedule: Q01DX009 (ip), vehicle: saline with Tween-80 87 % of control

CCOC(=O)c1ccc(OC(=O)Nc2ccc(F)cc2)cc1
inactive: dose: 50.0 mg/kg/injection, schedule: Q01DX001 (ip), vehicle: carboxymethylcellulose (CMC) 106 % of control | dose: 50.0 mg/kg/injection, schedule: Q01DX009 (ip), vehicle: carboxymethylcellulose (CMC) 96 % of control and 105 % of control | dose: 50.0 mg/kg/injection, schedule: Q04DX002 (ip), vehicle: carboxymethylcellulose (CMC) 95 % of control and 103 % of control | dose: 100.0 mg/kg/injection, schedule: Q01DX001 (ip), vehicle: carboxymethylcellulose (CMC) 104 % of control | dose: 100.0 mg/kg/injection, schedule: Q01DX009 (ip), vehicle: carboxymethylcellulose (CMC) 95 % of control and 99 % of control | dose: 100.0 mg/kg/injection, schedule: Q04DX002 (ip), vehicle: carboxymethylcellulose (CMC) 95 % of control and 107 % of control | dose: 200.0 mg/kg/injection, schedule: Q01DX001 (ip), vehicle: carboxymethylcellulose (CMC) 101 % of control | dose: 200.0 mg/kg/injection, schedule: Q01DX009 (ip), vehicle: carboxymethylcellulose (CMC) 94 % of control | dose: 200.0 mg/kg/injection, schedule: Q04DX002 (ip), vehicle: carboxymethylcellulose (CMC) 103 % of control and 88 % of control

CCCCCCCCCCCCSCO
inactive: [1] 118 % of control | dose: 50.0 mg/kg/injection, schedule: Q01DX009 (ip), vehicle: saline with Tween-80 105 % of control | [2] 101 % of control and 91 % of control | [3] 105 % of control | [14] 90 % of control | dose: 200.0 mg/kg/injection, schedule: Q04DX003 (ip), vehicle: saline with Tween-80 96 % of control

O=C(Nc1ccc(Cl)cc1)c1ccc([N+](=O)[O-])cc1
inactive: dose: 100.0 mg/kg/injection, schedule: Q04DX002 (ip), vehicle: gum acacia 106 % of control | dose: 200.0 mg/kg/injection, schedule: Q04DX002 (ip), vehicle: gum acacia 102 % of control | dose: 400.0 mg/kg/injection, schedule: Q04DX002 (ip), vehicle: gum acacia 98 % of control

CCCCCCCCP(=O)(N1CC1CC)N1CC1CC (configuration not stated)
inactive: [11] 101 % of control | [4] 103 % of control | [5] 101 % of control

O=c1[nH]cc(F)c(=O)[nH]1.[Tl]
inactive: dose: 3.12 mg/kg/injection, schedule: Q04DX003 (ip), vehicle: water 108 % of control | dose: 6.25 mg/kg/injection, schedule: Q04DX003 (ip), vehicle: water 107 % of control | dose: 12.5 mg/kg/injection, schedule: Q01DX009 (ip), vehicle: Klucel (hydroxypropylcellulose) (HPC) 102 % of control | dose: 12.5 mg/kg/injection, schedule: Q04DX003 (ip), vehicle: water 118 % of control

Nc1ccnc(OCc2ccccc2)n1
inactive: [12] 100 % of control | [13] 100 % of control

N#CCCN1CCCCCC1
inactive: dose: 15.0 mg/kg/injection, schedule: Q01DX009 (ip), vehicle: saline with Tween-80 98 % of control | dose: 30.0 mg/kg/injection, schedule: Q01DX009 (ip), vehicle: saline with Tween-80 95 % of control | dose: 30.0 mg/kg/injection, schedule: Q04DX003 (ip), vehicle: saline with Tween-80 92 % of control | dose: 60.0 mg/kg/injection, schedule: Q01DX009 (ip), vehicle: saline with Tween-80 104 % of control | dose: 60.0 mg/kg/injection, schedule: Q04DX003 (ip), vehicle: saline with Tween-80 109 % of control

O=[N+]([O-])c1ccc(Oc2cc(Cl)c(Cl)cc2Cl)c(Cl)c1
inactive: [9] 87 % of control | [10] 90 % of control | dose: 300.0 mg/kg/injection, schedule: Q01DX001 (ip), vehicle: saline 87 % of control
